Assay results published in patent publication US6455577B2, “Flavanone derivatives and composition for preventing or treating blood lipid level-related diseases comprising same” (Korea Research Institute of Bioscience and Biotechnology, priority 2000, dated 2002).

Columns and labels:
ACAT = ACAT activity in liver microsomes of fed rats; format: in vivo, rat
Protocol: (§1) To determine the effect of feeding NG5006 to rats on the activities of ACAT and HMG-CoA reductase, microsomes were separated from liver tissues to be used as an enzyme source.
(§2) 1 g each of the livers taken from each group of rats of Example 12 was homogenized in 5 ml of homogenization medium(0. 1 M KH2PO4, pH 7.4, 0.1 mM EDTA and 10 mM β-mercaptoethanol). The homogenate was centrifuged at 3,000×g for 10 min. at 4° C. and the supernatant thus obtained was centrifuged at 15,000×g for 15 min. at 4° C. to obtain a supernatant. The supernatant was put into an ultracentrifuge tube(Beckman) and centrifuged at 100,000×g for 1 hour at 4° C. to obtain microsomal pellets, which were then suspended in 3 ml of the homogenization medium and centrifuged at 100,000×g for 1 hour at 4° C. The pellets thus obtained were suspended in 1 ml of the homogenization medium. The protein concentration of the resulting suspension was determined by Lowry's method and then adjusted to 4 to 8 mg/ml. The resulting suspension was stored in a deep freezer(Biofreezer, Forma Scientific Inc.).
6.67 μl of 1 mg/ml cholesterol solution in acetone was mixed with 6 μl of 10% Triton WR-1339(Sigma Co.) in acetone and then, acetone was removed from the mixture by evaporation under a nitrogen flow. Distilled water was added to the resulting mixture to adjust the concentration of cholesterol to […].
Added to 10 μl of the resulting aqueous cholesterol solution were 10 μl of 1 M KH2PO4(pH 7.4), 5 μl of 0.6 mM bovine serum albumin(BSA), 10 μl of microsome solution obtained in (Step 1) and 55 μl of distilled water(total 90 μl). The mixture was pre-incubated in a water bath at 37° C. for 30 min. […]
200 μl of the resulting supernatant was put in a scintillation bottle and 4 ml of scintillation fluid(Lumac Co.) was added thereto. The mixture was assayed for radioactivity with 1450 Microbeta liquid scintillation counter(Wallac Co., Finland). ACAT activity was calculated as picomoles of cholesteryl oleate synthesized per min. per mg protein(pmoles/min/mg protein).

HMG-CoA reductase = biological target: T1, HMG-CoA reductase (Rattus norvegicus, UniProt P51639); assay: HMG-CoA reductase activity in liver microsomes of fed rats; format: in vivo
T1 construct: microsomes were separated from liver tissues to be used as an enzyme source; from tissue; host or cells: liver microsomes of fed rats
T1 sequence (P51639 1-887): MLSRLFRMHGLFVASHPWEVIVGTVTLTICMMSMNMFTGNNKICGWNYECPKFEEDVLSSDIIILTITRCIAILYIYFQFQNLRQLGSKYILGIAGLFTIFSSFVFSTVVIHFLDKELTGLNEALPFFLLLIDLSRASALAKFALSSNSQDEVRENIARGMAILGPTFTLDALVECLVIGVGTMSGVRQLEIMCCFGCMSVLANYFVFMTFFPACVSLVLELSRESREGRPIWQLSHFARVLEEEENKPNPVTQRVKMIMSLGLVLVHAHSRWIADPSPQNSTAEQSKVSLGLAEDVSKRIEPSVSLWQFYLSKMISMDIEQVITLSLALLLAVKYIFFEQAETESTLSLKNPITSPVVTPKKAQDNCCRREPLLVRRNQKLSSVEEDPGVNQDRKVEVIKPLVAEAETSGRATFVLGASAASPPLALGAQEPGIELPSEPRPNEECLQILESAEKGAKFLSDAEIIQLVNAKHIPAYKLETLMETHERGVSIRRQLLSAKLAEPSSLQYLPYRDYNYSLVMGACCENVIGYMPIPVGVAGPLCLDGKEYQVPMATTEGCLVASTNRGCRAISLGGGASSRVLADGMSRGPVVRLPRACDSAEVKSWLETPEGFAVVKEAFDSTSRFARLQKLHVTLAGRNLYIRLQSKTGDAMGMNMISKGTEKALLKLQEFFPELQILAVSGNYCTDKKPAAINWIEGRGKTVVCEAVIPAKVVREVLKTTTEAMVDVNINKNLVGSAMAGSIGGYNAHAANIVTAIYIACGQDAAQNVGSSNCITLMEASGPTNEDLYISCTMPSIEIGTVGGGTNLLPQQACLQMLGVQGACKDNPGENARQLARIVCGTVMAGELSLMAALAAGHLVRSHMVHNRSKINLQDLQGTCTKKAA
Protocol: as §1, §2
The activity of HMG-CoA reductase was determined by employing [^14C]HMG-CoA, in accordance with the method of Shapiro et al.(Biochemica et Biophysica Acta, 370, 369-377(1974)) as follows.
The enzyme in the supernatant containing the microsome obtained in (Step 1) was activated at 37° C. for 30 min. Added to a reaction tube were 20 μl of HMG-CoA reductase assay buffer(0.25M KH2PO4(pH 7.0), 8.75 mM EDTA, 25 mM DTT, 0.45 M KCl and 0.25 mg/ml BSA), 5 μl of 50 mM NADPH, 5 μl of [^14C]HMG-CoA(0.05μ Ci/tube, final conc. 120μM), and 10 μl of activated microsomal enzyme(0.03-0.04 mg), and the mixture was incubated at 37° C. for 30 min. […] A region having a Rf value ranging from 0.65 to 0.75 was removed by scraping with a disposable cover slips and assayed for radioactivity with 1450 Microbeta liquid scintillation counter(Wallac Co., Finland). Enzyme activities were calculated as picomoles mevalonic acid synthesized per min. per mg protein(pmoles/min/mg protein).

[1] = liver microsomes of rats fed 1% cholesterol plus 0.02% naringenin or 0.036% NG5006, six weeks

## CCCCCCCCCCCCCCCCOc1cc(O)c2c(c1)OC(c1ccc(O)cc1)CC2=O (stereo not shown) [NG5006, Naringenin 7-O-cetyl Ether]
ACAT; NG5006-fed rat group
  ACAT activity lower than that of the control group: 14%
ACAT; [1]
  ACAT activity: 149.7 ± 5.1 pmole/min/mg protein
HMG-CoA reductase; NG5006-fed rat group
  HMG-CoA activity lower than that of the control group: 27.5%
HMG-CoA reductase; [1]
  HMG-CoA reductase activity: 81.6 ± 6.0 pmole/min/mg protein
